In data set [1] the test system is mLBP (soluble mLIF-R α-chain). The data set is described as follows: Competitive inhibition of [125I]hLIF binding to mLBP (hLIF-like activity score). Also noted: species or system mouse. Conditions: logarithmic scale, hLIF = 100%, mLIF = 0%; mean±SEM. The text has this:
Reference is made herein to the subject molecule having at least about 35% hLIF-like activity. More preferably, the molecule has at least about 50% hLIF-like activity and even more preferably at least about 70% hLIF-like activity. hLIF-like activity is defined in terms of the ability for a molecule to compete for ^125 I-hLIF binding to mLBP based on the equation: [formula]
wherein xm is the dose of unlabelled mLIF; xh is the dose of unlabelled hLIF; xc is the dose of the molecule (e.g. protein, polypeptide or peptide) required to give 50% inhibition of ^125 I-hLIF binding to mLBP.
Normal mouse serum was used as a source of mLBP. […] Bound and free radioactivity were separated by vacuum filtration of the supernatant and the ConA-Sepharose pellet was washed once with 200 μl cold PBS. Assay plates containing the cell pellet were then exposed to a phosphor screen (Molecular Dynamics, Calif., U.S.A.) for 16-24 hours and the results quantified using Imagequant version 3.0 software (Molecular Dynamics). […]

Data set [2] relates to mLBP (soluble mLIF-R α-chain). The data set is described as follows: Competitive inhibition of [125I]mLIF binding to mLBP. Conditions: in words. Also noted: species or system mouse. As to the method: Normal mouse serum was used as a source of mLBP. For competitive binding experiments, 50 μl aliquots of unlabelled LIF or a mouse-human LIF hybrid were added to 96-well filtration assay plates containing a 0.65 micron Durapore membrane (Millipore, Mass., U.S.A.) with 20 μl aliquots of a 1/10 to 1/20 dilution of normal mouse serum, 10 μl radiolabelled ligand and 25 μl Concanavalin-A Sepharose 4B (ConA-Sepharose, Pharmacia, Uppsala) (diluted 1:4 in 100 mM sodium acetate pH6.0 containing 1 mM MnCl2, 1 mM MgCl2 and 1 mM CaCl2; this and all subsequent buffers contained 0.02% w/v sodium azide and 0.02% v/v Tween 20) and incubated at room temperature overnight with agitation. Bound and free radioactivity were separated by vacuum filtration of the supernatant and the ConA-Sepharose pellet was washed once with 200 μl cold PBS. Assay plates containing the cell pellet were then exposed to a phosphor screen (Molecular Dynamics, Calif., U.S.A.) for 16-24 hours and the results quantified using Imagequant version 3.0 software (Molecular Dynamics).
The structural integrity of all m-hLIF chimeras was also verified by evaluating their ability to bind correctly to the mLIF-R α-chain.

Data set [3] concerns murine M1 leukaemic colonies. The data set is described as follows: M1 differentiation assay (specific biological activity). The format is cell-based. As to the method:
The functional activity of the m-hLIF hybrids was assayed by their ability to induce differentiation in murine M1 leukaemic colonies. M1 differentiation assays were performed as described (Metcalf et al, 1988). The specific activity of each hybrid was expressed as the units of M1 differentiation-inducing activity per milligram of protein.
The protein concentration of each purified sample was determined by amino acid analysis, and the amount of biologically active protein in each sample was estimated by its ability to induce differentiation in mouse M1 myeloid leukaemic colonies. An internal standard of mLIF (10^4 U/ml) was used to normalise all M1 cell bioassays (50 U/ml of LIF is defined as the concentration of LIF required for half maximal stimulation).

For data set [4], the system named is M1 cells. The data set is described as follows: Serum dose inhibition of M1 colony differentiation by normal mouse serum (mLBP). The format is cell-based, murine. Conditions: up to 200 U/ml hLIF. Here is the method:
For serum dose inhibition assays, the specific activity of each LIF preparation was determined by titration in cultures of M1 cells. Aliquots of normal mouse serum (containing approximately 5 μg/ml mLBP) were then added in serial 2-fold dilutions to cultures of M1 cells that also contained a just maximal concentration (200 U) of mLIF (SEQ. ID. NO:1), hLIF (SEQ. ID. NO:2) or m-hLIF hybrid. Assays including mLIF and hLIF gave identical results when either crude mouse serum or a highly purified preparation of mLBP was used. Hybrids were assessed for mLIF or hLIF character from the dilution of serum required to block 50% of their M1 cell differentiation-inducing activity.
A 1:4 to 1:8 dilution of normal mouse serum (equivalent to ~0.5-1 μg/ml mLBP) is required to block 50% of the M1 differentiation-inducingactivity of up to 200 U/ml mLIF, whereas, due to the higher affinity of hLIF for mLBP, a 1:8192 dilution of serum (~0.6 ng/ml mLBP) is sufficient to block 50% of the M1 activity of up to 200 U/ml hLIF. This ability of mLBP to inhibit the differentiation-inducing activity of LIF in a species-specific manner was utilized as a second assay that distinguished hLIF from mLIF. […]

In data set [5] the test system is M1 cells. The conditions noted are these: background statement; cited from earlier work.

Take “hLIF: human leukaemia inhibitory factor, H1-180 (SEQ. ID. NO:2), recombinant from E. coli”: the “hLIF-like activity (percentage human score) calculated from ID50 for inhibition of [125I]hLIF binding to mLBP” value in data set [1] is listed as 100%. Further, in data set [2], the “ability to compete for [125I]mLIF binding to mLBP” value is reported as “approximately equal ability”. For the same substance, the “biological activity in a mouse cell bioassay, in words” value in data set [3] was “nearly equal biological activities”. For the same substance, the “specific biological activity (units of LIF activity per milligram of protein)” value in data set [3] (mouse M1 cells, 50 U/ml = half maximal stimulation) is 1-3×10^8 U/mg. Further, in the data set on M1 cells [4], the “mLBP concentration equivalent to serum dilution blocking 50% of M1 activity” value is ~ 0.6 ng/ml. Also, in the data set on M1 cells [5], the “mLBP more potent inhibitor of hLIF than mLIF (inhibition of biological responses to LIF)” value is recorded as “approximately 1000 fold”.

The values are drawn from patent publication US6184370A, “Receptor-binding determinant from leukaemia inhibitory factor” (Amrad Corporation Limited, priority 1994, dated 2001).
